Consider one molecule from patent publication US20090181080A1, “Oral cannabinnoid liquid formulations and methods of treatment” (Insys Therapeutics Inc., priority 2007, published 2009).

Each structure is given as a SMILES string.

The nature of this data set: Threshold concentration versus duration of effect analysis of Example 35 data. It counts as in vivo, human. As to the method: In Example 38, the individual concentration-time profiles for soft gelatin capsules of Example 35 were analyzed to identify the mean duration of effect in that subject population, for a range of threshold concentrations (e.g., minimum effective concentrations). The results are depicted in FIG. 4.

Setting [1] is: 5 mg dose, by dose-proportional scaling.
The mark [2] stands for this setting: dose of 10 mg dronabinol, soft gelatin capsules of Example 35 data.

Take `CCCCCc1cc(O)c2c(c1)OC(C)(C)[C@@H]1CCC(C)=C[C@@H]21` [dronabinol, Delta-9-Tetrahydrocannabinol]: under setting [1], the “threshold concentration for a 4 hour duration of effect” value is “approximately 0.28 ng/mL” and the “threshold concentration for a 6 hour duration of effect” value was ~0.12 ng/mL. For the same molecule, under setting [2], the “threshold concentration required for a 4 hour duration of effect” value is “approximately 0.56 ng/mL” and the “threshold concentration required for a 6 hour duration of action” value was “approximately 0.24 ng/mL”.
